Reference: patent US9327023B2, “HER2 targeting agent treatment in non-HER2-amplified cancers having HER2 expressing cancer stem cells” (The Regents of the University of Michigan, priority 2011, dated 2016)
Entries after “also recorded” stand apart in the source; their conditions may differ.

Legend:
IL6, IL8, and CCL5 = assay: cytokine secretion of Sum159-HER2+PTEN- cells, ELISA; assay type: cell-based, human; details: for secretion of all three cytokines (IL6, IL8, CCL5) / reduced the levels of these cytokines: Sum159-HER2+PTEN- cells, 1 mM Stat3 Inhibitor VII; for secretion of all three cytokines (IL6, IL8, CCL5): 5 mM Bay11-7082, 5 mM perfosine; for reduced the levels of these cytokines: 5 mM perfosine
Protocol: The NF-kB transcription factor is involved in the transcription of a number of cytokine genes including IL6, IL8, and CCL5 (Yu et al., 2010; herein incorporated by reference in its entirety). Furthermore, IL6-activated NF-kB signaling is mediated by Stat3 and Akt signaling pathways (Iliopoulos et al., 2009; herein incorporated by reference in its entirety). […] The effect of recombinant cytokines or cytokine-blocking antibodies on cytokine production was determined.

[1] = test system: HER2 amplified BT474 tumor xenografts; assay: BT474 xenograft in fat pad, early and late treatment; assay type: in vivo, NOD/SCID mice; details: for growth of established BT474 tumors: late treatment, trastuzumab 4 mg/kg IP twice a week, docetaxel 10 mg/kg IP once a week
Protocol: (§1) Five-week old NOD/SCID mice from breeding colony, University of Michigan, Harland and Jackson Laboratory were used throughout the experiments. All experiments involving live mice were conducted in accordance with standard operating procedures approved by University Committee on the Use and Care of Animals at the University of Michigan (ULAM). An estrogen pellet was subcutaneously implanted in each mouse with the fat pad injection of MCF7 or ZR75-1 cells. Mice were sacrificed when tumor reached 1-1.2 CM.
(§2) A xenograft model was used to simulate clinical disease in adjuvant (early treatment) and advanced (late treatment) setting. 5 mice per treatment group were used. For adjuvant setting, 50,000 cells of BT474, ZR75-1 and MCF7 were injected into fat pads and began treatment immediately after inoculation. To simulate advanced disease, 1 million cells of BT474, ZR75-1 and MCF7 were inoculated into fat pads and tumors allowed to reach a size of approximately 0.4 cm. Then, treatment described below was initiated and continued along with assessment of tumor growth for 6-week period. Animals were sacrificed right after completion of 6-week treatment and cancer stem cells were analyzed by Aldefluor assay as described previously.
(§3) NOD/SCID mice implanted with luciferase-labeled cells received 6-week of treatment in both advanced and adjuvant setting.
(§4) Fat pad tumor diameter was measured by caliper weekly. Tumor volumes were calculated using the formula: volume=width^2×length/2. Luciferase-labeled tumor growth was monitored at least every 2 weeks using in vivo imaging system (ISVS, Caliper Life Science). Mice were injected with luciferin (Caliper), anesthetized and imaged according to manufacturer's protocols. For photon flux counting, a charge-coupled device camera system (Xenogen) with a nose-cone isofluorane delivery system and heated stage for maintaining body temperature was used. Results were analyzed after 10 minutes of exposure using the Living Image software provided with the Xenogen imaging system.

[2] = test system: luminal ZR75-1 tumor xenografts; assay: ZR75-1 xenograft in fat pad, early and late treatment; assay type: in vivo, NOD/SCID mice; details: for growth of established ZR75-1 tumors: late treatment, trastuzumab 4 mg/kg IP twice a week, docetaxel 10 mg/kg IP once a week
Protocol: as §1, §2, §3, §4

[3] = test system: SUM159-HER2+PTEN- xenografts; assay: SUM159-HER2+PTEN- trastuzumab-resistant xenografts; details: for serum IL6 or IL8 levels: human specific ELISA; for percent of Aldefluor-positive cells in tumors: mouse, in vivo; for body weight: tumor-bearing mice, docetaxel 10 mg/kg once a week; for tumor growth: 8 weeks, perifosine 20 mg/kg twice a week, anti-IL6R 10 mg/kg once a week; for serum human IL6 and IL8 in control and docetaxel-treated mice higher than in treated mice: ELISA
[4] = test system: BT474-DsRed and BT474-PTEN- cells; assay: CD44+/CD24- flow cytometry of BT474 cells; assay type: cell-based, human
Protocol: (§5) To measure ALDH activity, the Aldefluor assay was carried out according to manufacturer's guidelines (StemCell Technologies, Inc., Durham, N.C.). Indicated cells were incubated with fluorophore-conjugated CD44 or CD24 antibodies alone or in combination on ice for 30 min, washed with Hank's balanced salt solution (HBSS), and resuspended in DAPI containing HBSS buffer for flow cytometry analyses.
To determine whether induction of the CSC phenotype was dependent on IL6 production, the effect of addition of IL6 receptor antibody on induction of the CSC phenotype was assessed. […] The ability of the anti-IL6R antibody to affect the CD44^+/CD24^− population in Sum159 cells, which lack the expression of the luminal CD24 marker, was examined.

Sum159 cells = assay: CD44/CD24 flow cytometry of Sum159 cells; assay type: cell-based, human; details: 5 days
Protocol: as §5
However, there was approximately a 2-fold increase in IL6 secretion when cells were treated for 3 weeks or longer (SEE FIG. 14A). […] The effects of trastuzumab-mediated IL6 production on CSCs were also tested. […] In contrast, downregulation of PTEN in these cells generated a population that contained approximately 10% CD44^+/CD24^− cells (FIG. 14B). […] To determine whether induction of the CSC phenotype was dependent on IL6 production, the effect of addition of IL6 receptor antibody on induction of the CSC phenotype was assessed. […] The ability of the anti-IL6R antibody to affect the CD44^+/CD24^− population in Sum159 cells, which lack the expression of the luminal CD24 marker, was examined. […] This discrepancy may be explained by the existence of different stem cell populations in different breast cancer subtypes.

parental BT474 cells = assay: co-culture of parental BT474 cells with BT474-PTEN-LTT cells; assay type: cell-based, human
Text: (§6) The green fluorescent protein (GFP) label in the parental (PTEN wild-type) cells allowed separation by flow cytometry of cell populations following co-culture. Co-culture of parental BT474-GFP cells with BT474-PTEN^−LTT cells increased the percentage of CD44^+/CD24^− CSCs from 0.1% to 60% in parental cells (SEE FIG. 15A). Single GFP-expressing parental BT474 cells were sorted after 3 weeks of co-culture with BT474-PTEN^−LTT and generated multiple colonies. […] To examine the direct role of IL6 in these processes, parental BT474 or SKBR cells were stimulated with recombinant IL6 or conditioned medium (CM) from BT474-PTEN^−LTT cells in the presence or absence of anti-IL6R antibody.

[5] = test system: parental BT474 or SKBR cells; assay: stimulation with recombinant IL6 or conditioned medium, mesenchymal phenotype and CD44; assay type: cell-based, human; details: 5 days
Text: as §6

BT474 cells [6] = assay: tumorspheres in suspension cultures of BT474 cells; assay type: cell-based, human
Protocol: Single cells were plated on ultra-low attachment plates at a density of 1×10^5/ml and grown for 7 days in a mammocult medium (Stem Cell Technologies). After the treatment of primary spheres, they were dissociated into single-cell suspension and plated at a density of 5×10^3-1×10^4/ml for the subsequent passages. Secondary spheres were counted after 5-7 days in culture.

BT474 cells [7] = assay: cell growth / viable cells of BT474 cells; assay type: cell-based, human; details: parental BT474 cells
[8] = test system: trastuzumab-sensitive BT474-DsRed xenografts; assay: BT474-DsRed xenografts; assay type: in vivo, NOD/SCID mice; details: 7-week period, compared to saline
[9] = test system: trastuzumab-resistant BT474-PTEN- xenografts; assay: BT474-PTEN- xenografts; assay type: in vivo, NOD/SCID mice; details: for secondary tumors and distant metastasis after excision of primary tumors: excised after 8 weeks of treatment, luciferase imaging
Text: Treatments for all early settings were 8 weeks long. […] Drug doses were as described in early setting.
To determine the effects of these treatments on the development of metastasis, we excised primary BT474-PTEN^− tumors after 8 weeks of treatment and assessed subsequent development of local and distant metastasis by luciferase imaging (FIG. 7D).

[10] = test system: breast CSCs (tumor-initiating cells); assay: reimplantation assay of residual tumor cells into secondary mice; assay type: in vivo; details: residual tumors from treated mice
Text: One of the hallmarks of CSC model is their ability to initiate tumors in secondary reimplantation assays (Clarke et al., 2006; herein incorporated by reference in its entirety).

[11] = test system: HER2 expression in MCF7 cells; assay: co-culture of MCF7 cells with human osteocytes, HER2 expression by flow cytometry; assay type: cell-based; details: MCF7 co-cultured with human osteocytes
Protocol: Preparation of cells for FACS analysis and sorting was described as followings. Cells were collected and rinsed twice in 1×PBS containing 2% FBS and a fraction of cells were added with human immunoglobulin to identify non-specific binding and use these cells as a gate for negative control. Cells were incubated with appropriate antibody dilution as manufacture's guidelines. The antibody included anti-HER2/neu APC (Biosciences, Cat#340554), anti-HER2/neu PE (Biosciences, Cat#340552).
To simulate the bone microenvironment in vitro, co-culture experiments were performed utilizing MCF7, DsRed labeled with osteocytes generated from human bone mesenchymal stem cells. […] A number of biological effects of the bone microenvironment and mediated by RANK-ligand.

Cc1ccc(S(=O)(=O)/C=C/C#N)cc1 [Bay11-7082]
secretion of all three cytokines (IL6, IL8, CCL5) (IL6, IL8, and CCL5): completely inhibited | secretion of all three cytokines (IL6, IL8, CCL5) (IL6, IL8, and CCL5; listed as Bay11): almost completely blocked; also recorded: completely suppressed

CC(=O)O[C@@]12CO[C@@H]1C[C@H](O)[C@@]1(C)C(=O)[C@H](O)C3=C(C)[C@@H](OC(=O)[C@H](O)[C@@H](NC(=O)OC(C)(C)C)c4ccccc4)C[C@@](O)([C@@H](OC(=O)c4ccccc4)[C@H]21)C3(C)C [docetaxel]
tumor growth / formation, BT474 ([1]; early (adjuvant) setting): suppressed tumor formation | growth of established BT474 tumors [1]: reduced tumor growth | growth of established BT474 tumors ([1]; listed as Docetaxel): highest efficacy to shrink tumors | tumor growth / formation, ZR75-1 ([2]; early (adjuvant) setting): suppressed tumor formation | growth of established ZR75-1 tumors [2]: reduced tumor growth | growth of established ZR75-1 tumors ([2]; listed as Docetaxel): highest efficacy to shrink tumors | serum IL6 or IL8 levels [3]: no significant effect | percent of Aldefluor-positive cells in tumors [3]: no significant effect; also recorded: no reduction | body weight [3]: lost body weight

CCCCCCCCCCCCCCCCCCOP(=O)([O-])OC1CC[N+](C)(C)CC1 [perifosine]
secretion of all three cytokines (IL6, IL8, CCL5) (IL6, IL8, and CCL5): only partially inhibited | reduced the levels of these cytokines (IL6, IL8, and CCL5): 50% | tumor growth [3]: significantly inhibited tumor growth | serum human IL6 and IL8 in control and docetaxel-treated mice higher than in treated mice [3]: 2 fold | serum IL6 or IL8 levels [3]: significantly reduced | percent of Aldefluor-positive cells in tumors [3]: significantly reduced; also recorded: substantial reduction | body weight [3]: less body weight loss

Stat3 Inhibitor VII
secretion of all three cytokines (IL6, IL8, CCL5) (IL6, IL8, and CCL5): only partially inhibited | reduced the levels of these cytokines (IL6, IL8, and CCL5): 50%

Tocilizumab [anti-IL6R antibody]
IL6-increased production of all three cytokines (IL6, IL8, and CCL5; HER2+PTEN- cells with recombinant IL6): completely inhibited | reduced the levels of these cytokines (IL6, IL8, and CCL5): more than 50% | CD44+/CD24- CSC population [4]: reduced | increase in CD44+/CD24- population induced by trastuzumab [4]: completely blocked | cell growth (Sum159 cells): substantial growth arrest | generation of CD24+ cells (Sum159 cells): 11% | induction of the CD44+/CD24- phenotype (parental BT474 cells; antibody added at the time of co-culture): inhibited | CD44+/CD24- phenotype in parental cells (parental BT474 cells; late treatment): no effect; also recorded: resistant | IL6- or CM-induced mesenchymal phenotype and CD44 expression [5]: able to reverse | number of tumorspheres induced by CM (BT474 cells [6]): reduced | CM- or IL6-conferred resistance to trastuzumab (BT474 cells [7]): blocked; also recorded: reversed | growth of BT474-DsRed xenografts [8]: little effect | growth of BT474-PTEN- xenografts ([9]; early treatment): completely blocked tumor growth | tumor growth as assessed by tumor weight at sacrifice ([9]; established tumors (late treatment)): completely blocked tumor growth | secondary tumors and distant metastasis after excision of primary tumors [9]: no distant metastasis detected | secondary tumors and distant metastasis after excision of primary tumors ([9]; listed as Anti-IL6R antibody): completely inhibited | serum IL6 levels ([9]; human specific ELISA): lowest levels | frequency of CSCs reduced [10]: more than 50% | frequency of breast CSCs [10]: significantly lower | tumor growth [3]: significantly inhibited tumor growth | serum human IL6 and IL8 in control and docetaxel-treated mice higher than in treated mice [3]: 2 fold | serum IL6 or IL8 levels [3]: significantly reduced | percent of Aldefluor-positive cells in tumors [3]: significantly reduced; also recorded: substantial reduction

denosumab
HER2 induction by osteocyte co-cultures [11]: partially blocked | HER2 induction by osteocyte co-cultures ([11]; listed as Denosumab): able to suppress
